Source: patent US10913714B2, “Pyrrole sulfonyl derivative, preparation method and medical use thereof” (JIANGSU CAREPHAR PHARMACEUTICAL CO., LTD, priority 2015, dated 2021)
Where a name gives a salt, the structure may show the parent alone.

What was measured:
H^+/K^+-ATPase = target: T1, H^+/K^+-ATPase (Oryctolagus cuniculus, UniProt P27112); assay: Inhibition of H+/K+-ATPase enzymatic activity (rabbit gastric mucosal microsomes, malachite green); format: biochemical; conditions: pH 6.5, 37° C. 30 min, read-out: The median inhibitory concentration (IC50) of the compound to the activity of H^+/K^+-ATPase
T1 construct: collecting the middle layer (H^+/K^+-ATPase enriched gastric membranes) into a clean centrifugal tube; from tissue; host or cells: rabbit stomach (gastric mucosal microsomes, sucrose/Ficoll gradient centrifugation)
Excerpt: Biological Evaluation on H^+/K^+-ATPase
The following screening assays in vitro are used to evaluate the inhibiting effect of the compound of the Invention on the enzymatic activity of H^+/K^+-ATPase. Experimental materials and instruments are as follows:
1) Rabbit gastric mucosal microsomes (enriched H^+/K^+-ATPase; extracted by the Applicant)
2) Buffer solution: 50 mmol/L HEPEs-Tris, pH=6.5, 5 mmol/L magnesium chloride, 10 μmol/L valinomycin;
3) Buffer solution: 50 mmol/L HEPEs-Tris, pH=6.5, 5 mmol/L magnesium chloride, 10 μmol/L valinomycin, 5 mmol/L potassium chloride;
4) ATP: diluting ATP to 5 mM with buffer solution 1;
5) Malachite green solution: dissolving 0.12% of malachite green in 2.5 mol/L of sulfuric acid; mixing 7.5% (V/V) of ammonium molybdate and 11% of Tween 20(V/V) in a proportion of 100:25:2;
6) The method for extracting rabbit gastric mucosal microsomes (enriched H^+/K^+-ATPase) is sucrose gradient centrifugation, i.e., washing the rabbit stomach with tap water and 3M NaCl solution respectively and removing the surface moisture with filter paper; adding the pre-cooled buffer solution (4 ml/g tissue) for homogenation in a tissue homogenizer for 2-5 min; removing the large tissue particles in a way of centrifugation (600 g, 10 mm) if any after homogenation; transferring the supernatant to a clean centrifugal tube for centrifugation for 30 min at 2000 g; then transferring the supernatant to a clean centrifugal tube for further centrifugation for 90 min at 100000 g; collecting the sediment; suspending the sediment in the homogenate and blowing it to be uniform; measuring the protein concentration with Bradford method; adjusting the concentration to 10 mg/ml; adding 7.5% Ficoll demixing fluid in an equal proportion for centrifugation for 60 min at 100000 g; collecting the middle layer (H^+/K^+-ATPase enriched gastric membranes) into a clean centrifugal tube; diluting it with 4-5 times of homogenate for further centrifugation for 90 min at 100000 g; collecting the sediment; suspending the sediment in the homogenate for homogenation with a glass homogenizer; measuring the protein concentration with Bradford method and adjusting the concentration to 22.5 mg/ml; freezing it under −80° C. for standby. Experimental Process:
Adding 5 μL of gastric mucosal microsomes (H^+/K^+-ATPase) in 45 µL of buffer solution 2; adding 5 μL of the compound solution; adding 5 μL 5 mM of ATP to start the reaction for pre-reaction at 37° C. for 30 min; adding 15 μL of malachite green solution to terminate the reaction; balancing at ambient temperature for 20 min; reading the value of absorbed light at 620 nm.
Meanwhile, conducting another reaction with the same volume without potassium chloride for background, which will be subtracted when calculating the enzymatic activity.
The value of Compound IC50 is calculated through the inhibition ratios at different concentrations.

hERG potassium channel = target: T2, hERG potassium channel (Homo sapiens, UniProt Q12809); assay: Whole cell patch clamp, inhibition of hERG tail current; format: cell-based; conditions: for IC50: human, hERG cells (host cell line not named), pH 7.4, whole cell patch clamp, logistic fit; for Inhibition ratio of max. test concentration (hERG current): max. test concentration 100 μM
T2 construct: expressed in transfected cells
Experimental: Test Case 2: Studies on the Effect of Compounds EXP 1, TAK-438 and EXP 12 on hERG Potassium Channel Testing System 1) Cell culture: the hERG cell is cultured in a routine way, which is subcultured in a DMEM containing 10% of fetal calf serum and 250 μg/ml of G418. 2) Fluid preparation: the composition of the extracellular fluid used in the experiment of whole cell patch clamp comprises (mM): NaCl 145, MgCl21, KCl 4, Glucose 10, HEPES 10 and CaCl22; adjusting the pH value of NaOH to 7.4 and adjusting the value of osmotic pressure to 300 mOsm with sucrose. The composition of the intracellular fluid comprises (mM):KCl 140; MgCl 21; EGTA 5; HEPES 10 and Na2ATP 4; adjusting the pH value of KOH to 7.2 and adjusting the value of osmotic pressure to 290 mOsm with sucrose.
Main composition of the extracellular and intracellular fluid
Test Procedure 1) Electrophysiological recording: taking out one culture dish for each test; cleaning it with the extracellular fluid twice and placing it on the inverted microscope stage. The experiment of whole cell patch clamp is conducted at ambient temperature; the resistance at the microelectrode tip of the used borosilicate glass is 3-5 MQ. 2) Voltage stimulus plan and current record: clamping down the membrane potential to −80 mV under the whole-cell recording mode; giving +50 mV of depolarized voltage stimulus to the cell every 30 s and lasting for 2 s, then repolarizing it to −50 mV and lasting for 3 s, thus, the tail current of hERG can be extracted. Giving 50 ms, −50 mV repolarized voltage to the cell before depolarized voltage stimulus; the current recorded at such voltage is as the base line for calculating the tail current of hERG. Only the cells meet the recording standard can be used in the test of the compounds to be tested. The hERG tail current should be recorded stably at last for 3 min in the extracellular fluid before the compound is added. After perfusion of drugs, it can be regarded that the drug effect reaches a steady state if the change of the amplitude of hERG tail current is less than 5%. If the current fails to reach a steady state in 6 min, the test should also be terminated. 3) Testing standard: the membrane resistance in the experiment should be more than 1,000 MQ. The initial current should be more than 300 pA. The series resistance should be less than 12 MQ after the whole-cell recording mode is constructed. The leakage current is less than 10% of the ionic channel current (taking −80 pA as the peak value). Data Analysis
Using Clampex 10.2 to record the original data and saving the data in the format of *abf. Using pCLAMP 10.1 to conduct data collection and analysis. Selecting 4-5 sweeps when the current is in a steady state before the compound is added; calculating the average peak value to serve as the contrasted current amplitude. Selecting 4-5 sweeps when the current is in a steady state after the compound is added; calculating the average peak value to serve as the residual amplitude of the inhibited current. The inhibition ratio of the compound to be tested to hERG current is calculated as per the equation as: % inhibition ratio={1−(current residual amplitude)/(contrasted current amplitude)}*100
After the inhibition ratio (average value±standard deviation) of the compound to be tested to the hERG current of different concentrations is obtained through the above computing method, the data with logistic equation should be fitted to obtain the value of IC50.

[1] = Acute toxicity test, single gavage in rats; format: in vivo; conditions: SD rat, gavage once, observed 14 days
Experimental: Test content: single administration dosage: 2000 mg/kg, 600 mg/kg; administration by gavage: once; volume: 10 ml/kg; observing for 14 days for the rat's behavior and weight each day.
Experimental grouping: black group, Group of 600 mg/kg, Group of 2000 mg/kg; 4 rats each group; half male and half female.

T2 sequence (Q12809 whole entry): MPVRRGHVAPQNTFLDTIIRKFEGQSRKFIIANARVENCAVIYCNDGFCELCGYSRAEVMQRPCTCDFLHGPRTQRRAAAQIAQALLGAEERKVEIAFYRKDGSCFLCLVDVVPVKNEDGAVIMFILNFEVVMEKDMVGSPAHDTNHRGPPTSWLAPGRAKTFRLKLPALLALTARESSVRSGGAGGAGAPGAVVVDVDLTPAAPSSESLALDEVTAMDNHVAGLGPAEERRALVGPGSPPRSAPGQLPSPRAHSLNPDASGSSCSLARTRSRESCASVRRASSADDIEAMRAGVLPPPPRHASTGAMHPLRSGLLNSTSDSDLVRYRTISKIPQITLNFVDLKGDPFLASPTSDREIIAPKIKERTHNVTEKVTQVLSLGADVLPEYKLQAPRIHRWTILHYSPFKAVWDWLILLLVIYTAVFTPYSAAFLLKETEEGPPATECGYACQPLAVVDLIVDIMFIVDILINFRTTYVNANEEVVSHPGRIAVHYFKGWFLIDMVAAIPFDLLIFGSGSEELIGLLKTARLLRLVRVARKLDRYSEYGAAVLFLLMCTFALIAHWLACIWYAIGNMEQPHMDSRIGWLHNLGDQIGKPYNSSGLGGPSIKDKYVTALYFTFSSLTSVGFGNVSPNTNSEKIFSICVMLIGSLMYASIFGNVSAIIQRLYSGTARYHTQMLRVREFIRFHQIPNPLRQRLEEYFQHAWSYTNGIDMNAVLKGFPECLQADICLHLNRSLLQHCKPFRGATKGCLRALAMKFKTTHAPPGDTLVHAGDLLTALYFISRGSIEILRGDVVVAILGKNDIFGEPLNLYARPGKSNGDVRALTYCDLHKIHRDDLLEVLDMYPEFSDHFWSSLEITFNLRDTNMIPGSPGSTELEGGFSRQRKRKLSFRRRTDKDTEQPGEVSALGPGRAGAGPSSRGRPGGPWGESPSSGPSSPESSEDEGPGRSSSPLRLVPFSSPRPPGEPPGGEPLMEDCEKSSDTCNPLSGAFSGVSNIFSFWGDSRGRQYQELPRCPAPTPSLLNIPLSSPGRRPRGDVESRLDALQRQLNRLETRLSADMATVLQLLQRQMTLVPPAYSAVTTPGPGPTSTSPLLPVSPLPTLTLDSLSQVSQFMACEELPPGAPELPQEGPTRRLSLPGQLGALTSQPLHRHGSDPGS
T1 sequence (P27112 whole entry): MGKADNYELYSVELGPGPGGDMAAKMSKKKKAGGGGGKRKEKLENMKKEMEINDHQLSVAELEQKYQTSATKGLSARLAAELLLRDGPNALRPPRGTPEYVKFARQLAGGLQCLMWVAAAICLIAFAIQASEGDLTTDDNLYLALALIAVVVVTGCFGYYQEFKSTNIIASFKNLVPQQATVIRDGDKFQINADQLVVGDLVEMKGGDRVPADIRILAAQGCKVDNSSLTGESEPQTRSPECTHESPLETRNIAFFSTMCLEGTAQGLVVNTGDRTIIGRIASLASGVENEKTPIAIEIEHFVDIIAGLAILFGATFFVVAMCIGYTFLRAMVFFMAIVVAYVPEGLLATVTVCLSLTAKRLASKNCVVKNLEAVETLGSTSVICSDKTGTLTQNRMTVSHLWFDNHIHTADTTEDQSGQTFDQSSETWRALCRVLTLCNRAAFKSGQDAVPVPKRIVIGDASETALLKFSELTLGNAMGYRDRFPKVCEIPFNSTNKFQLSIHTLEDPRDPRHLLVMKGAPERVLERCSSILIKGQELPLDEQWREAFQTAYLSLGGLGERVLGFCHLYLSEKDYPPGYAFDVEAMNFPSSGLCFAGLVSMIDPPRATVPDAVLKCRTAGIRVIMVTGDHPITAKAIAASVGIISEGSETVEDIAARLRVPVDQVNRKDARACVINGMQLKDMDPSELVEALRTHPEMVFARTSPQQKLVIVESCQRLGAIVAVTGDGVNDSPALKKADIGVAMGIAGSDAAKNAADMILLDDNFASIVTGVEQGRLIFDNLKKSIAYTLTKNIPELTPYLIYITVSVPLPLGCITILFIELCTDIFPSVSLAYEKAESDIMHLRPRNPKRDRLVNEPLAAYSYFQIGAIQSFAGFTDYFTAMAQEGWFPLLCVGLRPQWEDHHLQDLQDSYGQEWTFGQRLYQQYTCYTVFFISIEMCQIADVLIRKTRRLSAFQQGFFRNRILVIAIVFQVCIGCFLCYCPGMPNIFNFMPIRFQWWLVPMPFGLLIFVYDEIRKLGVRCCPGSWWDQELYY
T1 sequence (P18597 whole entry partner): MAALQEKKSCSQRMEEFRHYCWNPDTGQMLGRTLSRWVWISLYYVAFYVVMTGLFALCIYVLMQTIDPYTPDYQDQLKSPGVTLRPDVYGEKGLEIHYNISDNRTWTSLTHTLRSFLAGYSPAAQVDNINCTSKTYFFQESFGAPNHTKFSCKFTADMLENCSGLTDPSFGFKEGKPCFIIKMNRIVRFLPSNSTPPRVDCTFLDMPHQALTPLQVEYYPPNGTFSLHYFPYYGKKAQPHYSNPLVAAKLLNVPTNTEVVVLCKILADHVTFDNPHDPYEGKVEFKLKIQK

Row | SMILES | IC50 (H^+/K^+-ATPase) [µM] | IC50 (hERG potassium channel) [µM] | Inhibition ratio of max. test concentration (hERG current) (hERG potassium channel) [%] | Death after single oral dose ([1]; 600 mg/kg) | Impact on the rat's weight ([1]; 600 mg/kg) | Death after single oral dose ([1]; 2000 mg/kg)
1 | CNCc1cc(-c2ccccc2F)n(S(=O)(=O)c2cccc(OCCCOC)c2)c1 [EXP 1, 1-(5-(2-fluorobenzene)-1-((3-(3-methoxypropoxy)phenyl)sulfonyl)-1H-pyrrole-3-yl)-N-methyl methylamine] | < 0.1 | 18.7 | 86.21 ± 1.67 | no death | not obvious | no death
2 | CNCc1cc(-c2ccccc2F)n(S(=O)(=O)c2cccnc2)c1 [TAK-438, 5-(2-fluorophenyl)-N-methyl-1-(3-pyridylsulfonyl)-1H-pyrrole-3-methamine fumarate] | < 0.1 | 15.9 | 88.23 ± 3.18 |  | inhibition of weight gain | all died
